Earlier results on 1 compound are cited in patent publication US8637078B2, “Bilayer tablet comprising telmisartan and diuretic” (Boehringer Ingelheim International GmbH, priority 2005, dated 2014).

The conditions of data set [1]: composition with 3 to 50 wt. % telmisartan in dissolving matrix (basic agent, surfactant or emulsifier, water-soluble diluent); known from WO 2004/028505.
For data set [2] the following is noted: both polymorphic forms A and B; physiological pH range of the gastrointestinal tract, pH 1 to 7.

Regarding `CCCc1nc2c(C)cc(-c3nc4ccccc4n3C)cc2n1Cc1ccc(-c2ccccc2C(=O)O)cc1` [telmisartan, 4′-[2-n-propyl-4-methyl-6-(1-methylbenzimidazol-2-yl)-benzimidazol-1-ylmethyl]-biphenyl-2-carboxylic acid], the “solubility raised by a factor” value in data set [1] was “several hundred”. In data set [2], the “solubility in aqueous systems” value is listed as “very poor solubility”.
